Experimental data from PubChem BioAssay AID1963848 (Molecular Pharmacology Branch, DTP, NCI, 2024).

Tested on: 379773-124-R-J2-PDC spheroid viability
Assay: Anticancer human tumor 379773-124-R-J2-PDC patient-derived endometrial carcinoma cell line growth inhibition [POLQ]
Conditions: spheroids with HUVEC and MSC; for IC50: curve of first compound; for viability, T/C: stronger effect = lower value
How it was run: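 Complex spheroid viability model combining PDC tumour cells with endothelial (HUVEC) and MSC stromal cells. Novobiocin, ART-558 or RP6685 were tested singly and in combination with standard and investigational anticancer drugs. Each was titrated in half-log steps from near clinical Cmax, or from 10 microM where Cmax was unknown.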

[1] = second compound 0.0316 µM, first compound 0.0316 µM
[2] = second compound 0.0316 µM, first compound 0.1 µM
[3] = second compound 0.1 µM, first compound 0.0316 µM
[4] = second compound 0.1 µM, first compound 0.1 µM
[5] = second compound 0.316 µM, first compound 0.0316 µM
[6] = second compound 0.316 µM, first compound 0.1 µM
[7] = second compound 1 µM, first compound 0.0316 µM
[8] = second compound 1 µM, first compound 0.1 µM
[9] = second compound 3.16 µM, first compound 0.0316 µM
[10] = second compound 3.16 µM, first compound 0.1 µM
[11] = second compound 10 µM, first compound 0.0316 µM
[12] = second compound 10 µM, first compound 0.1 µM
[13] = second compound 0.0316 µM, first compound 0.316 µM
[14] = second compound 0.0316 µM, first compound 1 µM
[15] = second compound 0.0316 µM, first compound 3.16 µM
[16] = second compound 0.0316 µM, first compound 10 µM
[17] = second compound 0.1 µM, first compound 0.316 µM
[18] = second compound 0.1 µM, first compound 1 µM
[19] = second compound 0.1 µM, first compound 3.16 µM
[20] = second compound 0.1 µM, first compound 10 µM
[21] = second compound 0.316 µM, first compound 0.316 µM
[22] = second compound 0.316 µM, first compound 1 µM
[23] = second compound 0.316 µM, first compound 3.16 µM
[24] = second compound 0.316 µM, first compound 10 µM
[25] = second compound 1 µM, first compound 0.316 µM
[26] = second compound 1 µM, first compound 1 µM
[27] = second compound 1 µM, first compound 3.16 µM
[28] = second compound 1 µM, first compound 10 µM
[29] = second compound 3.16 µM, first compound 0.316 µM
[30] = second compound 3.16 µM, first compound 1 µM
[31] = second compound 3.16 µM, first compound 3.16 µM
[32] = second compound 3.16 µM, first compound 10 µM
[33] = second compound 10 µM, first compound 0.316 µM
[34] = second compound 10 µM, first compound 1 µM
[35] = second compound 10 µM, first compound 3.16 µM
[36] = second compound 10 µM, first compound 10 µM
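Further: spheroids exposed to drugs for seven days before readout.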
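Wherever viability, T/C is given: percent viability relative to DMSO vehicle control taken as 100%.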

CC[C@@]1(O)C(=O)OCc2c1cc1n(c2=O)Cc2cc3c(CN(C)C)c(O)ccc3nc2-1 + COC1C(OC(N)=O)C(O)C(Oc2ccc3c(O)c(NC(=O)c4ccc(O)c(CC=C(C)C)c4)c(=O)oc3c2C)OC1(C)C
IC50 (second compound 0.0316 µM): 0.0325 µM
IC50 (second compound 0.1 µM): 0.0192 µM
IC50 (second compound 0.316 µM): 0.019 µM
IC50 (second compound 1 µM): 0.017 µM
IC50 (second compound 3.16 µM): 0.0219 µM
IC50 (second compound 10 µM): 0.021 µM
viability, T/C (second compound 0.0316 µM, first compound 0.000316 µM): 86.5%
viability, T/C (second compound 0.0316 µM, first compound 0.001 µM): 79.3%
viability, T/C (second compound 0.0316 µM, first compound 0.00316 µM): 85.7%
viability, T/C (second compound 0.0316 µM, first compound 0.01 µM): 73.5%
viability, T/C [1]: 51.2%
viability, T/C [2]: 10.9%
viability, T/C (second compound 0.1 µM, first compound 0.000316 µM): 73.3%
viability, T/C (second compound 0.1 µM, first compound 0.001 µM): 77.8%
viability, T/C (second compound 0.1 µM, first compound 0.00316 µM): 74.1%
viability, T/C (second compound 0.1 µM, first compound 0.01 µM): 71.2%
viability, T/C [3]: 33.9%
viability, T/C [4]: 14.1%
viability, T/C (second compound 0.316 µM, first compound 0.000316 µM): 85.7%
viability, T/C (second compound 0.316 µM, first compound 0.001 µM): 78.6%
viability, T/C (second compound 0.316 µM, first compound 0.00316 µM): 78.2%
viability, T/C (second compound 0.316 µM, first compound 0.01 µM): 71.2%
viability, T/C [5]: 33.6%
viability, T/C [6]: 12.1%
viability, T/C (second compound 1 µM, first compound 0.000316 µM): 86.4%
viability, T/C (second compound 1 µM, first compound 0.001 µM): 94.9%
viability, T/C (second compound 1 µM, first compound 0.00316 µM): 72.6%
viability, T/C (second compound 1 µM, first compound 0.01 µM): 68%
viability, T/C [7]: 32.2%
viability, T/C [8]: 9.89%
viability, T/C (second compound 3.16 µM, first compound 0.000316 µM): 76.9%
viability, T/C (second compound 3.16 µM, first compound 0.001 µM): 71.5%
viability, T/C (second compound 3.16 µM, first compound 0.00316 µM): 83.1%
viability, T/C (second compound 3.16 µM, first compound 0.01 µM): 65%
viability, T/C [9]: 42.4%
viability, T/C [10]: 11.6%
viability, T/C (second compound 10 µM, first compound 0.000316 µM): 72.9%
viability, T/C (second compound 10 µM, first compound 0.001 µM): 73.3%
viability, T/C (second compound 10 µM, first compound 0.00316 µM): 82.5%
viability, T/C (second compound 10 µM, first compound 0.01 µM): 69.6%
viability, T/C [11]: 38.8%
viability, T/C [12]: 12.5%

COc1cc(C2c3cc4c(cc3C(OC3OC5COC(C)OC5C(O)C3O)C3COC(=O)C23)OCO4)cc(OC)c1O (stereo unspecified) + COC1C(OC(N)=O)C(O)C(Oc2ccc3c(O)c(NC(=O)c4ccc(O)c(CC=C(C)C)c4)c(=O)oc3c2C)OC1(C)C
IC50 (second compound 0.0316 µM): 1.19 µM
IC50 (second compound 0.1 µM): 1.51 µM
IC50 (second compound 0.316 µM): 1.49 µM
IC50 (second compound 1 µM): 1.37 µM
IC50 (second compound 3.16 µM): 1.37 µM
IC50 (second compound 10 µM): 1.19 µM
viability, T/C [1]: 97.5%
viability, T/C [2]: 82.6%
viability, T/C [13]: 86.2%
viability, T/C [14]: 56.9%
viability, T/C [15]: 13.8%
viability, T/C [16]: 9.47%
viability, T/C [3]: 95.5%
viability, T/C [4]: 80.6%
viability, T/C [17]: 80%
viability, T/C [18]: 70.5%
viability, T/C [19]: 13%
viability, T/C [20]: 10.2%
viability, T/C [5]: 95.8%
viability, T/C [6]: 80.9%
viability, T/C [21]: 81.3%
viability, T/C [22]: 70.5%
viability, T/C [23]: 11.1%
viability, T/C [24]: 9.75%
viability, T/C [7]: 93.1%
viability, T/C [8]: 94.6%
viability, T/C [25]: 81.6%
viability, T/C [26]: 64.8%
viability, T/C [27]: 12.2%
viability, T/C [28]: 9.19%
viability, T/C [9]: 76.1%
viability, T/C [10]: 84.7%
viability, T/C [29]: 83%
viability, T/C [30]: 64%
viability, T/C [31]: 12.9%
viability, T/C [32]: 8.54%
viability, T/C [11]: 85.2%
viability, T/C [12]: 84.4%
viability, T/C [33]: 89.3%
viability, T/C [34]: 56.3%
viability, T/C [35]: 14.1%
viability, T/C [36]: 9.29%

O=c1[nH]cc(F)c(=O)[nH]1 + COC1C(OC(N)=O)C(O)C(Oc2ccc3c(O)c(NC(=O)c4ccc(O)c(CC=C(C)C)c4)c(=O)oc3c2C)OC1(C)C
IC50 (second compound 0.0316 µM): > 10 µM
IC50 (second compound 0.1 µM): > 10 µM
IC50 (second compound 0.316 µM): > 10 µM
IC50 (second compound 1 µM): > 10 µM
IC50 (second compound 3.16 µM): > 10 µM
IC50 (second compound 10 µM): > 10 µM
viability, T/C [1]: 85.1%
viability, T/C [2]: 83.2%
viability, T/C [13]: 85.4%
viability, T/C [14]: 80.3%
viability, T/C [15]: 69.1%
viability, T/C [16]: 51.8%
viability, T/C [3]: 90.7%
viability, T/C [4]: 88.8%
viability, T/C [17]: 81.8%
viability, T/C [18]: 86.2%
viability, T/C [19]: 68.6%
viability, T/C [20]: 61%
viability, T/C [5]: 92.7%
viability, T/C [6]: 90.4%
viability, T/C [21]: 80.9%
viability, T/C [22]: 78%
viability, T/C [23]: 75.8%
viability, T/C [24]: 56.6%
viability, T/C [7]: 82.6%
viability, T/C [8]: 77.2%
viability, T/C [25]: 88.4%
viability, T/C [26]: 74.6%
viability, T/C [27]: 71.1%
viability, T/C [28]: 60.3%
viability, T/C [9]: 78.2%
viability, T/C [10]: 82.6%
viability, T/C [29]: 90.4%
viability, T/C [30]: 70.8%
viability, T/C [31]: 76.6%
viability, T/C [32]: 57.5%
viability, T/C [11]: 75.6%
viability, T/C [12]: 78.5%
viability, T/C [33]: 76.1%
viability, T/C [34]: 71%
viability, T/C [35]: 70.6%
viability, T/C [36]: 55.3%
